Laboratory results published in PubChem BioAssay (NCI).
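Step 1: Grow cells in 96-well plates. Step 2: Expose to compound for 48 hours at 5 concentrations. Step 3: Interpolate endpoints linearly; if unreached, use highest concentration. TGI: concentration producing complete growth inhibition.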

Experiments:
Assay in all cases: growth of human tumour cells (NCI), 48 h
[1] = tested on: IGROV1 ovarian
[2] = tested on: HCT-15 colon
[3] = tested on: ACHN renal
[4] = tested on: RXF-631 renal
[5] = tested on: SNB-19 CNS
[6] = tested on: SK-MEL-2 melanoma
[7] = tested on: HCC-2998 colon
[8] = tested on: DLD-1 colon
[9] = tested on: UACC-62 melanoma
[10] = tested on: OVCAR-5 ovarian
[11] = tested on: HOP-62 NSCLC
[12] = tested on: UACC-257 melanoma
[13] = tested on: SW-620 colon
[14] = tested on: LOX IMVI melanoma
[15] = tested on: SR leukemia
[16] = tested on: SK-MEL-28 melanoma
[17] = tested on: NCI-H522 lung
[18] = tested on: TK-10 renal
[19] = tested on: CAKI-1 renal
[20] = tested on: HOP-18 NSCLC
[21] = tested on: A549 NSCLC
[22] = tested on: RPMI-8226 leukemia
[23] = tested on: SK-MEL-5 melanoma
[24] = tested on: HOP-92 NSCLC
[25] = tested on: SF-295 CNS
[26] = tested on: M19-MEL melanoma
[27] = tested on: MALME-3M melanoma
[28] = tested on: UO-31 renal
[29] = tested on: OVCAR-3 ovarian
[30] = tested on: K-562 leukemia
[31] = tested on: SF-539 CNS
[32] = tested on: NCI-H226 lung
[33] = tested on: OVCAR-4 ovarian
[34] = tested on: SNB-78 CNS
[35] = tested on: SN12C renal
[36] = tested on: DMS 273 small cell lung
[37] = tested on: MOLT-4 leukemia
[38] = tested on: HT29 colon
[39] = tested on: HCT-116 colon
[40] = tested on: M14 melanoma
[41] = tested on: KM12 colon
[42] = tested on: SF-268 CNS
[43] = tested on: EKVX NSCLC
[44] = tested on: HL-60(TB) leukemia
[45] = tested on: XF 498 CNS
[46] = tested on: A498 renal
[47] = tested on: SNB-75 CNS
[48] = tested on: LXFL 529 NSCLC
[49] = tested on: CCRF-CEM leukemia
[50] = tested on: OVCAR-8 ovarian
[51] = tested on: SK-OV-3 ovarian
[52] = tested on: NCI-H460 lung
[53] = tested on: NCI-H23 lung
[54] = tested on: 786-0 renal
[55] = tested on: KM20L2 colon
[56] = tested on: U251 CNS
[57] = tested on: DMS 114 small cell lung
[58] = tested on: COLO 205 colon

## COC(=O)/C(=N\NC(N)=O)C(C(=O)C(=O)Nc1ccccc1C(=O)OC)c1nc2ccc(C(=O)c3ccccc3)cc2[nH]c1=O (stereo not given)
[1]
  TGI: > 100 µM
[2]
  TGI: > 100 µM
[3]
  TGI: > 100 µM
[4]
  TGI: > 100 µM
[5]
  TGI: > 100 µM
[6]
  TGI: > 100 µM
[7]
  TGI: > 100 µM
[8]
  TGI: > 100 µM
[9]
  TGI: > 100 µM
[10]
  TGI: > 100 µM
[11]
  TGI: > 100 µM
[12]
  TGI: > 100 µM
[13]
  TGI: > 100 µM
[14]
  TGI: > 100 µM
[15]
  TGI: > 100 µM
[16]
  TGI: > 100 µM
[17]
  TGI: > 100 µM
[18]
  TGI: > 100 µM
[19]
  TGI: > 100 µM
[20]
  TGI: > 100 µM
[21]
  TGI: > 100 µM
[22]
  TGI: > 100 µM
[23]
  TGI: > 100 µM
[24]
  TGI: > 100 µM
[25]
  TGI: > 100 µM
[26]
  TGI: > 100 µM
[27]
  TGI: > 100 µM
[28]
  TGI: > 100 µM
[29]
  TGI: > 100 µM
[30]
  TGI: > 100 µM
[31]
  TGI: > 100 µM
[32]
  TGI: > 100 µM
[33]
  TGI: > 100 µM
[34]
  TGI: > 100 µM
[35]
  TGI: > 100 µM
[36]
  TGI: > 100 µM
[37]
  TGI: > 100 µM
[38]
  TGI: > 100 µM
[39]
  TGI: > 100 µM
[40]
  TGI: > 100 µM
[41]
  TGI: > 100 µM
[42]
  TGI: > 100 µM
[43]
  TGI: > 100 µM
[44]
  TGI: > 100 µM
[45]
  TGI: > 100 µM
[46]
  TGI: > 100 µM
[47]
  TGI: > 100 µM
[48]
  TGI: > 100 µM
[49]
  TGI: > 100 µM
[50]
  TGI: > 100 µM
[51]
  TGI: > 100 µM
[52]
  TGI: > 100 µM
[53]
  TGI: > 100 µM
[54]
  TGI: > 100 µM
[55]
  TGI: > 100 µM
[56]
  TGI: > 100 µM
[57]
  TGI: > 100 µM

## CN(C)CCCN1N=Nc2cccc3cccc1c23
[1]
  TGI: > 100 µM
[2]
  TGI: > 57.5 µM
[3]
  TGI: > 100 µM
[4]
  TGI: > 100 µM
[5]
  TGI: > 100 µM
[6]
  TGI: > 100 µM
[7]
  TGI: > 100 µM
[8]
  TGI: > 100 µM
[9]
  TGI: > 100 µM
[58]
  TGI: > 70.2 µM
[10]
  TGI: > 100 µM
[11]
  TGI: > 100 µM
[12]
  TGI: > 100 µM
[13]
  TGI: > 54.4 µM
[14]
  TGI: > 100 µM
[15]
  TGI: 51.4 µM
[16]
  TGI: > 100 µM
[17]
  TGI: > 100 µM
[18]
  TGI: > 100 µM
[19]
  TGI: > 100 µM
[20]
  TGI: > 100 µM
[21]
  TGI: > 100 µM
[22]
  TGI: > 69.3 µM
[23]
  TGI: > 100 µM
[24]
  TGI: > 100 µM
[25]
  TGI: > 100 µM
[26]
  TGI: > 95.3 µM
[27]
  TGI: > 100 µM
[28]
  TGI: > 100 µM
[29]
  TGI: > 100 µM
[30]
  TGI: > 65.1 µM
[31]
  TGI: > 100 µM
[32]
  TGI: > 100 µM
[33]
  TGI: 58 µM
[34]
  TGI: > 100 µM
[35]
  TGI: > 100 µM
[36]
  TGI: 39.8 µM
[37]
  TGI: > 77.3 µM
[38]
  TGI: > 100 µM
[39]
  TGI: > 64.6 µM
[40]
  TGI: > 63.6 µM
[41]
  TGI: > 100 µM
[42]
  TGI: > 100 µM
[43]
  TGI: > 100 µM
[44]
  TGI: > 63.1 µM
[45]
  TGI: > 100 µM
[46]
  TGI: > 100 µM
[47]
  TGI: > 100 µM
[48]
  TGI: > 87 µM
[49]
  TGI: > 63.4 µM
[50]
  TGI: > 100 µM
[51]
  TGI: > 100 µM
[52]
  TGI: > 89.1 µM
[53]
  TGI: > 100 µM
[54]
  TGI: 38.2 µM
[55]
  TGI: > 100 µM
[56]
  TGI: > 100 µM
[57]
  TGI: > 57.9 µM
